Data as given in publication PMC11148078, “Potent activity of polymyxin B is associated with long-lived super-stoichiometric accumulation mediated by weak-affinity binding to lipid A” (Nature Communications, 2024).
Bridge positions count the residues as written; N and C are the ends. Square brackets hold non-standard residues; d marks the D form. Peptide text beside a SMILES is read from it. * marks the point of attachment. X1 = CC[C@H](C)CCCCC(=O)*; Dab = NCC[C@H](N)C(=O)O

How the values were obtained:
E. coli WT = type: cell-based
Procedure: (§1) Bacterial strains and plasmids are listed in SI Table S5. LB growth media was prepared according to manufacturer’s instructions and supplemented with 0.2% arabinose and carbenicillin (50 μg/mL) for the strains containing pBAD24-mcr1 plasmid. Cultures were started by inoculating 3 ml LB with 1–2 colonies from fresh overnight plates and grown at 37 °C until in log phase. Modified minimal inhibitory concentration (MIC) assays were performed in 96-well round bottom polystyrene plates (Corning) with a final volume of 100 µl in LB supplemented with tween-80 at 0.0005%. […] Polymyxin B sulfate (TCI Co. Ltd), polymyxin B nonapeptide (PMBN) (Sigma), and brevicidine (Genentech) were diluted directly in the assay plates. Bacteria were diluted in LB with tween-80 0.0005% and added to a final OD600 of 0.0005. Growth was measured via OD600 on a SpectraMax M5 plate reader after overnight static growth at 37 °C with humidity.

S. aureus WT = type: cell-based
Procedure: as §1

| Structure (SMILES) | antibacterial activity (E. coli WT) | MIC (E. coli WT; LB + 0.0005% tween-80, OD600 0.0005, overnight static growth 37 °C, complete growth inhibition) [µM] | MIC (S. aureus WT; LB + 0.0005% tween-80, overnight 37 °C) [µM] | antibacterial activity (S. aureus WT; highest tested concentration) |
| --- | --- | --- | --- | --- |
| CC(C)C[C@@H]1NC(=O)[C@@H](Cc2ccccc2)NC(=O)[C@H](CCN)NC(=O)[C@@H](NC(=O)[C@H](CCN)NC(=O)[C@@H](N)[C@@H](C)O)CCNC(=O)[C@H]([C@@H](C)O)NC(=O)[C@H](CCN)NC(=O)[C@H](CCN)NC1=O [PMBN] (H-T[Dab][Dab][Dab][dF]L[Dab][Dab]T; lactam 3-C) | lacks the antibacterial activity of polymyxin B | >40 | – | – |
| CC[C@H](C)CCCCC(=O)N[C@@H](CCN)C(=O)N[C@H](C(=O)N[C@@H](CCN)C(=O)N[C@H]1CCNC(=O)[C@H]([C@@H](C)O)NC(=O)[C@H](CCN)NC(=O)[C@H](CCN)NC(=O)[C@H](CC(C)C)NC(=O)[C@@H](Cc2ccccc2)NC(=O)[C@H](CCN)NC1=O)[C@@H](C)O [Polymyxin B] (X1-[Dab]T[Dab][Dab][Dab][dF]L[Dab][Dab]T; lactam 4-C (inferred); N-terminus assumed) | – | – | >40 | no activity at the highest tested concentration |
